Laboratory results from US8791131B2, “Imidazo[1,5]naphthyridine compounds, their pharmaceutical use and compositions” (Pfizer Inc., priority 2008, dated 2014).

What was measured:
mTOR = mTOR (Homo sapiens (Human), UniProt P42345)
PI3-Kα = PI3-Kα (Mus musculus (Mouse), UniProt P42337); assay: PI3-Kα biochemical assay (in vitro kinase assay, fluorescence polarization); settings: Ki calculated from IC50, [ATP]=30 uM, Km=25 uM;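 note: Insect-cell-expressed mouse p110/p85 complex converting PI(4,5)P2, product PI(3,4,5)P3 detected by displacing TAMRA-tagged PI(3,4,5)P3 from Grip1 PH domain, lower polarization means more product, room temperature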
Sequence of PI3-Kα (P42337 whole entry, the tested form may be a part): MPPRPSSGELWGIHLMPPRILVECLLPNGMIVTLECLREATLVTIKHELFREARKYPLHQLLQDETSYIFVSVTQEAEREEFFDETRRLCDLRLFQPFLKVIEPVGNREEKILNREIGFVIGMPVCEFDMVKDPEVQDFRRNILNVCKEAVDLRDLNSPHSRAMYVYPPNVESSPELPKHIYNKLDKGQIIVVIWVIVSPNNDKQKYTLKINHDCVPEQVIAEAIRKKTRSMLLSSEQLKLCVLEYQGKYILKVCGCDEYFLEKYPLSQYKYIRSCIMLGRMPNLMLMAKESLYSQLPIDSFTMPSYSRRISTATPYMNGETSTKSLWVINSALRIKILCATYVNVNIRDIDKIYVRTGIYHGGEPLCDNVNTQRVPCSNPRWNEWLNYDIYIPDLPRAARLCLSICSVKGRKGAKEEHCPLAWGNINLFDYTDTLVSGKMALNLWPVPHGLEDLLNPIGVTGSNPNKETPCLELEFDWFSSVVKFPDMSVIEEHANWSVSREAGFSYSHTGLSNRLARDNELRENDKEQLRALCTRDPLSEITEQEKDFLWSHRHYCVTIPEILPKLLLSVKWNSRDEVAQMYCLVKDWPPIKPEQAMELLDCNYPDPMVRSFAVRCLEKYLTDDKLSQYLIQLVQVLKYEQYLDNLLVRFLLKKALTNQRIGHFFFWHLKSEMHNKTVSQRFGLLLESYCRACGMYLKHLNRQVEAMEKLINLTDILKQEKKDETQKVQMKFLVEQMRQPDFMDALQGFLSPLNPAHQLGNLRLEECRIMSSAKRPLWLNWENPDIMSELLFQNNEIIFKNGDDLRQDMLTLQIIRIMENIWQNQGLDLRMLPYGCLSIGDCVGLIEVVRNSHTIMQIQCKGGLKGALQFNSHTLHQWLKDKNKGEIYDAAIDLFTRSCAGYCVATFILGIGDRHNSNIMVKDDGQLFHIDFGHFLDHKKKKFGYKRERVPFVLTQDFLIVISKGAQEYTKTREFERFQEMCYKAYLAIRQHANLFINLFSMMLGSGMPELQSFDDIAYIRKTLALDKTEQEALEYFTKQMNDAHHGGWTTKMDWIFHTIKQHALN
Sequence of PI3-Kα (P26450 whole entry partner, the tested form may be a part): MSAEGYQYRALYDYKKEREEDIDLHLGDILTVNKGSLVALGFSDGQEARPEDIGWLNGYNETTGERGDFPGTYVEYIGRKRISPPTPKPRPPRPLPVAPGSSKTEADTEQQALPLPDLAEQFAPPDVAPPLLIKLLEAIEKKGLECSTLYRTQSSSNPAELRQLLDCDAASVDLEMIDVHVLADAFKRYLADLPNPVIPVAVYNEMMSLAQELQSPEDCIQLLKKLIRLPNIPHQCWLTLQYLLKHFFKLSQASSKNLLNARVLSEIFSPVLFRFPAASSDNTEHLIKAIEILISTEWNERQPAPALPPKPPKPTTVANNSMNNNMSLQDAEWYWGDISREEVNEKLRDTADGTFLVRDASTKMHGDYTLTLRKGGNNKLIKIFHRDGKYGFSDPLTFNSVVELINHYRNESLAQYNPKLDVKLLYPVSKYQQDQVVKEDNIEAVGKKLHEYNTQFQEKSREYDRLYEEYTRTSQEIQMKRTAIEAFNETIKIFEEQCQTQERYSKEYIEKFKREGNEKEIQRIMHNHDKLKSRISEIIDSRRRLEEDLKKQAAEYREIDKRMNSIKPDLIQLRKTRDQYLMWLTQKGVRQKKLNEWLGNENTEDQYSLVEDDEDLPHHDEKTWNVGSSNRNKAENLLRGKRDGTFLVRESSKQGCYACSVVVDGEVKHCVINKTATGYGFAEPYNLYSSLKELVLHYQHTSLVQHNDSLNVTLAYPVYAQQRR

[1] = system: PI3-K (phosphorylation of AKT at serine 473) in BT20 cells; assay: PI3-Kα cellular assay (phospho-AKT Ser473 ELISA in BT20 cells); settings: Homo sapiens, BT-20, 1 h, read-out: S473 pAKT 10% FBS IC50 (μM);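 note: lysates read by ELISA with TMB colour at 450 nm, cells given 0.5% DMSO vehicle serve as positive control and cell-free wells as negative control, duplicate wells per concentration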

Sequence of mTOR (P42345 2156-2469): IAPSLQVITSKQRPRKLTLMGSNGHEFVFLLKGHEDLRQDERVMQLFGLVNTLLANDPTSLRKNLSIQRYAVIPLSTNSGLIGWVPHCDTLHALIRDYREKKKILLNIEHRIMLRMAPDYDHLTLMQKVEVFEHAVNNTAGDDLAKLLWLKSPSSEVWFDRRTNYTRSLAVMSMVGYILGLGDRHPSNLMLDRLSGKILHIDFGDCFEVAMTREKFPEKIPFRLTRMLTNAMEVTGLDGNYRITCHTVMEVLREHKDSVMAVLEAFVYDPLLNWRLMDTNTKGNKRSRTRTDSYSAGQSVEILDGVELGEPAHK

SMILES: COc1ccc(-c2ccc3ncc4c(c3n2)n(C2CCN(CC(N)=O)CC2)c(=O)n4C)cn1 [Compound 139, 2-{4-[8-(6-methoxypyridin-3-yl)-3-methyl-2-oxo-2,3-dihydro-1H-imidazo[4,5-c][1,5]naphthyridin-1-yl]piperidin-1-yl}acetamide]
- Ki (mTOR): 3.32 nM
- PI3Ka Ki (PI3-Kα): 0.339 nM
- IC50 [1]: 0.00714 µM

SMILES: COc1ccc(-c2ccc3ncc4c(c3n2)n(C2CCOCC2)c(=O)n4C)cn1 [Compound 140, 8-(6-methoxypyridin-3-yl)-3-methyl-1-(tetrahydro-2H-pyran-4-yl)-1,3-dihydro-2H-imidazo[4,5-c][1,5]naphthyridin-2-one]
- Ki (mTOR): 7.74 nM
- PI3Ka Ki (PI3-Kα): 0.668 nM
- IC50 [1]: 0.0185 µM

SMILES: Cn1c(=O)n(C2CCN(CC(F)(F)F)CC2)c2c3nc(-c4cnc5ccccc5c4)ccc3ncc21 [Compound 141, 3-methyl-8-quinolin-3-yl-1-[1-(2,2,2-trifluoroethyl)piperidin-4-yl]-1,3-dihydro-2H-imidazo[4,5-c][1,5]naphthyridin-2-one]
- Ki (mTOR): 9.56 nM
- PI3Ka Ki (PI3-Kα): 20.5 nM
- IC50 [1]: 0.0148 µM

SMILES: CNC(=O)N1CCC(n2c(=O)n(C)c3cnc4ccc(-c5ccc(OC)nc5)nc4c32)CC1 [Compound 142, 4-[8-(6-methoxypyridin-3-yl)-3-methyl-2-oxo-2,3-dihydro-1H-imidazo[4,5-c][1,5]naphthyridin-1-yl]-N-methylpiperidine-1-carboxamide]
- Ki (mTOR): 1.6 nM
- PI3Ka Ki (PI3-Kα): 1.15 nM
- IC50 [1]: 0.00919 µM

SMILES: Cn1c(=O)n(C2CCN(C(=O)C(C)(C)O)CC2)c2c3nc(-c4cnc5ccccc5c4)ccc3ncc21 [Compound 143, 1-[1-(2-hydroxy-2-methylpropanoyl)piperidin-4-yl]-3-methyl-8-quinolin-3-yl-1,3-dihydro-2H-imidazo[4,5-c][1,5]naphthyridin-2-one]
- Ki (mTOR): 7.21 nM
- PI3Ka Ki (PI3-Kα): 0.568 nM
- IC50 [1]: 0.028 µM

SMILES: CN(C)CC(=O)N1CCC(n2c(=O)n(C)c3cnc4ccc(-c5ccc(N(C)C)nc5)nc4c32)CC1 [Compound 144, 8-[6-(dimethylamino)pyridin-3-yl]-1-[1-(N,N-dimethylglycyl)piperidin-4-yl]-3-methyl-1,3-dihydro-2H-imidazo[4,5-c][1,5]naphthyridin-2-one]
- Ki (mTOR): 7.99 nM
- PI3Ka Ki (PI3-Kα): 2.1 nM
- IC50 [1]: 0.0153 µM

SMILES: Cn1c(=O)n(C2CCN(C(=O)C(C)(C)N)CC2)c2c3nc(-c4cnc5ccccc5c4)ccc3ncc21 [Compound 145, 3-methyl-1-[1-(2-methylalanyl)piperidin-4-yl]-8-quinolin-3-yl-1,3-dihydro-2H-imidazo[4,5-c][1,5]naphthyridin-2-one]
- Ki (mTOR): 13.3 nM
- PI3Ka Ki (PI3-Kα): 3.92 nM
- IC50 [1]: 0.0117 µM

SMILES: Cn1c(=O)n([C@H]2CC[C@H](O)CC2)c2c3nc(-c4cnc5ccccc5c4)ccc3ncc21 [Compound 146, 1-(trans-4-hydroxycyclohexyl)-3-methyl-8-quinolin-3-yl-1,3-dihydro-2H-imidazo[4,5-c][1,5]naphthyridin-2-one]
- Ki (mTOR): 3.8 nM
- PI3Ka Ki (PI3-Kα): 1.2 nM
- IC50 [1]: 0.00521 µM

SMILES: Cn1c(=O)n([C@H]2CC[C@H](OCCO)CC2)c2c3nc(-c4cnc5ccccc5c4)ccc3ncc21 [Compound 147, 1-[trans-4-(2-hydroxyethoxy)cyclohexyl]-3-methyl-8-quinolin-3-yl-1,3-dihydro-2H-imidazol[4,5-c][1,5]naphthyridin-2-one]
- Ki (mTOR): 10.1 nM
- PI3Ka Ki (PI3-Kα): 1.08 nM
- IC50 [1]: 0.0107 µM

SMILES: COc1ncc(-c2ccc3ncc4c(c3n2)n([C@H]2CC[C@H](OCCO)CC2)c(=O)n4C)cn1 [Compound 148, 1-[trans-4-(2-hydroxyethoxy)cyclohexyl]-8-(2-methoxypyrimidin-5-yl)-3-methyl-1,3-dihydro-2H-imidazo[4,5-c][1,5]naphthyridin-2-one]
- Ki (mTOR): 13.4 nM
- PI3Ka Ki (PI3-Kα): 2.09 nM
- IC50 [1]: 0.0263 µM

SMILES: CN(C)c1ccc(-c2ccc3ncc4c(c3n2)n([C@H]2CC[C@H](OCCO)CC2)c(=O)n4C)cn1 [Compound 149, 8-[6-(dimethylamino)pyridin-3-yl]-1-[trans-4-(2-hydroxyethoxy)cyclohexyl]-3-methyl-1,3-dihydro-2H-imidazo[4,5-c][1,5]naphthyridin-2-one]
- Ki (mTOR): 9.02 nM
- PI3Ka Ki (PI3-Kα): 0.102 nM
- IC50 [1]: 0.0116 µM

SMILES: CN(C)c1ccc(-c2ccc3ncc4c(c3n2)n(C2CCN(CC(F)(F)F)CC2)c(=O)n4C)cn1 [Compound 150, 8-[6-(dimethylamino)pyridin-3-yl]-3-methyl-1-[1-(2,2,2-trifluoroethyl)piperidin-4-yl]-1,3-dihydro-2H-imidazo[4,5-c][1,5]naphthyridin-2-one]
- Ki (mTOR): 12.5 nM
- PI3Ka Ki (PI3-Kα): 8.78 nM
- IC50 [1]: 0.0182 µM

SMILES: Cc1ccc(-c2ccc3ncc4c(c3n2)n([C@H]2CC[C@H](OCCO)CC2)c(=O)n4C)cn1 [Compound 152, 1-[trans-4-(2-hydroxyethoxy)cyclohexyl]-3-methyl-8-(6-methylpyridin-3-yl)-1,3-dihydro-2H-imidazo[4,5-c][1,5]naphthyridin-2-one]
- Ki (mTOR): 11.4 nM
- PI3Ka Ki (PI3-Kα): 1.68 nM
- IC50 [1]: 0.00863 µM

SMILES: COc1ncc(-c2ccc3ncc4c(c3n2)n(C2CCN(C(=O)[C@H](C)O)CC2)c(=O)n4C)cn1 [Compound 154, 1-{1-[(2S)-2-hydroxypropanoyl]piperidin-4-yl}-8-(2-methoxypyrimidin-5-yl)-3-methyl-1,3-dihydro-2H-imidazo[4,5-c][1,5]naphthyridin-2-one]
- Ki (mTOR): 0.822 nM
- PI3Ka Ki (PI3-Kα): 2.59 nM
- IC50 [1]: 0.0342 µM

SMILES: COc1ncc(-c2ccc3ncc4c(c3n2)n(C2CCN(CC(=O)N(C)C)CC2)c(=O)n4C)cn1 [Compound 163, 2-{4-[8-(2-methoxypyrimidin-5-yl)-3-methyl-2-oxo-2,3-dihydro-1H-imidazo[4,5-c][1,5]naphthyridin-1-yl]piperidin-1-yl}-N,N-dimethylacetamide]
- Ki (mTOR): 18.4 nM
- PI3Ka Ki (PI3-Kα): 4.7 nM
- IC50 [1]: 0.037 µM

SMILES: Cc1ccc(-c2ccc3ncc4c(c3n2)n(C2CCN(c3ncccn3)CC2)c(=O)n4C)cn1 [Compound 165, 3-methyl-8-(6-methylpyridin-3-yl)-1-(1-pyrimidin-2-ylpiperidin-4-yl)-1,3-dihydro-2H-imidazo[4,5-c][1,5]naphthyridin-2-one]
- Ki (mTOR): 73.2 nM
- PI3Ka Ki (PI3-Kα): 3.52 nM
- IC50 [1]: 0.0414 µM

SMILES: Cc1ccc(-c2ccc3ncc4c(c3n2)n(C2CCN(CCO)CC2)c(=O)n4C)cn1 [Compound 166, 1-[1-(2-hydroxyethyl)piperidin-4-yl]-3-methyl-8-(6-methylpyridin-3-yl)-1,3-dihydro-2H-imidazo[4,5-c][1,5]naphthyridin-2-one]
- Ki (mTOR): 17.6 nM
- PI3Ka Ki (PI3-Kα): 1.77 nM
- IC50 [1]: 0.0356 µM

SMILES: Cn1c(=O)n([C@H]2CC[C@H](O)CC2)c2c3nc(-c4cn[nH]c4)ccc3ncc21 [Compound 168, 1-(trans-4-hydroxycyclohexyl)-3-methyl-8-(1H-pyrazol-4-yl)-1,3-dihydro-2H-imidazo[4,5-c][1,5]naphthyridin-2-one]
- Ki (mTOR): 0.204 nM
- PI3Ka Ki (PI3-Kα): 4.17 nM
- IC50 [1]: 0.0197 µM

SMILES: Cn1cc(-c2ccc3ncc4c(c3n2)n([C@H]2CC[C@H](O)CC2)c(=O)n4C)cn1 [Compound 170, 1-(trans-4-hydroxycyclohexyl)-3-methyl-8-(1-methyl-1H-pyrazo1-4-yl)-1,3-dihydro-2H-imidazo[4,5-c][1,5]naphthyridin-2-one]
- Ki (mTOR): 7.18 nM
- PI3Ka Ki (PI3-Kα): 7.44 nM
- IC50 [1]: 0.107 µM

SMILES: Cc1ccc(-c2ccc3ncc4c(c3n2)n(C2CCN(C)CC2)c(=O)n4C)cn1 [Compound 171, 3-methyl-1-(1-methylpiperidin-4-yl)-8-(6-methylpyridin-3-yl)-1,3-dihydro-2H-imidazo[4,5-c][1,5]naphthyridin-2-one]
- Ki (mTOR): 40.1 nM
- PI3Ka Ki (PI3-Kα): 4.26 nM
- IC50 [1]: 0.0228 µM

SMILES: Cc1ccc(-c2ccc3ncc4c(c3n2)n(C2CCN(CC(N)=O)CC2)c(=O)n4C)cn1 [Compound 176, 2-{4-[3-methyl-8-(6-methylpyridin-3-yl)-2-oxo-2,3-dihydro-1H-imidazo[4,5-c][1,5]naphthyridin-1-yl]piperidin-1-yl}acetamide]
- Ki (mTOR): 1.41 nM
- PI3Ka Ki (PI3-Kα): 0.882 nM
- IC50 [1]: 0.0187 µM

SMILES: Cc1ccc(-c2ccc3ncc4c(c3n2)n(C2CCN(C(=O)CN(C)C)CC2)c(=O)n4C)cn1 [Compound 178, 1-[1-(N,N-dimethylglycyl)piperidin-4-yl]-3-methyl-8-(6-methylpyridin-3-yl)-1,3-dihydro-2H-imidazo[4,5-c][1,5]naphthyridin-2-one]
- Ki (mTOR): 1.18 nM
- PI3Ka Ki (PI3-Kα): 4.09 nM
- IC50 [1]: 0.0427 µM

SMILES: Cc1ccc(-c2ccc3ncc4c(c3n2)n([C@H]2CC[C@H](O)CC2)c(=O)n4C)cn1 [Compound 179, 1-(trans-4-hydroxycyclohexyl)-3-methyl-8-(6-methylpyridin-3-yl)-1,3-dihydro-2H-imidazo[4,5-c][1,5]naphthyridin-2-one]
- Ki (mTOR): 3.29 nM
- PI3Ka Ki (PI3-Kα): 1.03 nM
- IC50 [1]: 0.0185 µM

SMILES: Cc1ccc(-c2ccc3ncc4c(c3n2)n(C2CCN(C(=O)CN)CC2)c(=O)n4C)cn1 [Compound 180, 1-(1-glycylpiperidin-4-yl)-3-methyl-8-(6-methylpyridin-3-yl)-1,3-dihydro-2H-imidazo[4,5-c][1,5]naphthyridin-2-one]
- Ki (mTOR): 3.84 nM
- PI3Ka Ki (PI3-Kα): 0.32 nM
- IC50 [1]: 0.0689 µM

SMILES: COc1ncc(-c2ccc3ncc4c(c3n2)n(C2CCN(C)CC2)c(=O)n4C)cn1 [Compound 182, 8-(2-methoxypyrimidin-5-yl)-3-methyl-1-(1-methylpiperidin-4-yl)-1,3-dihydro-2H-imidazo[4,5-c][1,5]naphthyridin-2-one]
- Ki (mTOR): 4.51 nM
- PI3Ka Ki (PI3-Kα): 27.5 nM
- IC50 [1]: 0.159 µM
